Test results as given in paper PMC5913134, “The IL-33-PIN1-IRAK-M axis is critical for type 2 immunity in IL-33-induced allergic airway inflammation” (Nature Communications, 2018).

Experiments:
PIN1 = PIN1 expression in DC2.4 cells; format: cell-based, C57BL/6; conditions: ATRA 5 or 10 μM, 3 days pretreatment, before IL-33, DC2.4
[1] = test system: naive CD4^+ cells co-cultured with BMDCs; assay: BMDC / naive CD4+ T cell co-culture TH2 polarization, IL-5 and IL-13 secretion; format: cell-based, C57 B6 mice; conditions: ATRA 5 µM, two days prior to and during co-culture, IL-33 50 ng/ml
Experimental: Supplementary Figure 7. IRAK-M KO or Pin1 KO derived bone marrow dendritic cells attenuates Naïve TH2 cell differentiation upon IL-33 induction in co culture experiment. Naïve CD4+ T cells isolated from C57 B6 mice were cultured with or without IL-33 (50ng/ml) and BMDCs isolated from WT, IRAK-M KO (a) or Pin1 KO mice (b) in a 1:5 ratio for 5 days with no antigen being added. In some cases as indicated 5 µM of ATRA was added to the medium two days prior to T cell co culturing and during the experiment. Supernatants were analyzed for cytokines on day 5. The data were analyzed by a Student's two-tailed t test and the values are reported as mean ± standard errors of the means (SEM). *- statistical significance (P<0.05), **- significance (P<0.01).

[2] = test system: Il6, Csf3, Cxcl2 and Ccl5 expression in DC2.4 cells; assay: qRT-PCR of Il6, Csf3, Cxcl2 and Ccl5 in DC2.4 cells; format: cell-based, C57BL/6; conditions: for effect of ATRA on target gene expression: DC2.4, IL-33
Experimental: Also as indicated, some cells were pretreated for 3 days with 5 μM or 10 μM of ATRA before IL-33 induction. e Relative gene expression of Il6, Csf3, Cxcl2 and Ccl5 in the different samples as in d normalized to actin. f IRAK-M was stably expressed in pLKO or TET on shPin1 expressing cells, followed by induction with IL-33, before western blot to examine protein expression of IRAK-M, PIN1 and tubulin as well as g qRT-PCR to determine the relative gene expression for Il6, Csf3, Cxcl2 and Ccl5 in the different samples.
SYBR Green PCR Master Mix (Applied Biosystems, Foster City, CA) was used for two-step real-time RT-PCR analysis on an Applied Biosystems StepOnePlus Real Time PCR instrument. […] Expression value of the targeted gene in a given sample was normalized to the corresponding expression of Actin. The 2^–ΔΔCt method was used to calculate relative expression of the targeted genes.

IRAK-M = IRAK-M protein stability, cycloheximide chase; format: cell-based; conditions: PIN1-deficient MEFs (text PIN1 KD, Fig. 4g legend PIN1 KO) co-expressing IRAK-M with PIN1 mutant
Experimental: Fig. 4 PIN1 increases IRAK-M protein stabilization. a After IRAK-M and GFP were coexpressed in WT and PIN1 KO MEFs for 24 h, cells were split equally into 5 dishes. […] The data were analyzed by a Student’s two-tailed t test and the values are reported as mean ± standard errors of the means (SEM). *- statistical significance (P < 0.05), **- significance (P < 0.01)

Compound | PIN1 expression (PIN1) | IL-33-induced IL-5 and IL-13 secretion, inhibition by ATRA [1] | target gene expression (Il6, Csf3, Cxcl2, Ccl5) ([2]; ATRA, even at 5 µM, IRAK-M stably expressing DC2.4 cells, IL-33) | effect of ATRA on target gene expression ([2]; IRAK-M mutants S110E and P111A) | effect of ATRA on target gene expression ([2]; P111A mutant, 10 µM ATRA) | effect of ATRA on target gene expression ([2]; S110E mutant, 10 µM ATRA) | effect on IRAK-M half-life (IRAK-M)
CC1=C(/C=C/C(C)=C/C=C/C(C)=C/C(=O)O)C(C)(C)CCC1 [ATRA, all-trans retinoic acid] | reduced PIN1 expression | significantly attenuated | inhibited target gene expression | highly attenuated | completely abolished | some reduction in gene expression still persisted | 
K63A: PIN1 PPIase domain mutant K63A (catalytically inactive) |  |  |  |  |  |  | neither binding nor isomerizing mutants had any effect
W34A: PIN1 WW domain mutant W34A (binding defective) |  |  |  |  |  |  | neither binding nor isomerizing mutants had any effect
